Measured values as given in US9636324B2, “Use of 15-benzylidence-14-deoxy-11, 12 -dehyroandrographolide derivative in manufacture of medicaments for protecting liver and anti-hepatitis C virus” (Zhengzhou University, priority 2012, dated 2017).

Columns and labels:
[1] = tested on: mice with ConA induced liver damage; assay: ConA induced immunological liver damage model in mice; assay type: in vivo, Kunming mice; settings: for protective effect against liver damage induced by ConA (summary): mice, intragastric, 3 days
Protocol: Kunming mice of clean grade (male, weight 20±2 g, supplied by the Laboratory Animal Center, Henan Province) are randomly divided into groups with 6 mice in each group. Bifendate (Xinchang Pharmaceutical Factory of Zhejiang Pharmaceutical Co., Ltd, 200 mg/kg) is used as positive control, andrographolide (AD) is provided by Furen Pharmaceutical Group Co., Ltd, and the test compounds are synthesized by the inventors with purities higher than 99.0%. Normal control group and model group are intragastrically given 0.5% sodium carboxymethylcellulose (CMC-Na), and test groups are given 0.5% CMC-Na suspensions with AD (0.88 mmol/kg), and low dosage (0.66 mmol/kg) and high dosage (0.88 mmol/kg) of compound A, B and C, respectively. The drugs are given for 3 days. One hour after the last administration, all mice except those in the normal control group are injected with a single dose of ConA (20 mg/kg) through the caudal vein. After 8 h, the eyeball is enucleated to collect blood, which is centrifuged at 3000 rpm for 15 min to separate serum. ALT and AST are tested according to the kit specification, respectively (Nanjing Jiancheng Bioengineering Institute). The left lobe of liver is taken to prepare 10% homogenate using physiological saline, MDA is determined according to the kit specification (Nanjing Jiancheng Bioengineering Institute). To 50 μL liver homogenate is added 2 mL of 0.5 mol/L KOH-methanol solution and kept at 50° C. water bath to isomerize for 20 minutes, then absorbance (A value) is measured at 278 nm, using the A value per mL of homogenate to represent the PGE2 content. Experimental data are expressed as average±standard deviation (X±s), analyzed with SPSS 11.5 statistic software, with P<0.05 meaning significant difference.
Kunming mice of clean grade (male, weight 20±2 g) are randomly divided into normal group, model group, bifendate (Zhejiang Wanbang Pharmaceutical Co., Ltd) positive control group (200 mg/kg), AD group (0.88 mmol/kg), low dosage group (0.66 mmol/kg) and high dosage (0.88 mmol/kg) group of compound D. ALT, AST, and MDA assay kits are purchased from Nanjing Jiancheng Bioengineering Institute. Other agents, drugs and experimental methods are the same as in EXAMPLE 1.
In experimental investigation of both models, the following grouping method is used: Kunming mice of clean grade (male, weight 20±2 g) are randomly divided into normal group, model group, bifendate group (200 mg/kg), AD group (0.88 mmol/kg), low dosage group (0.66 mmol/kg) and high dosage group (0.88 mmol/kg) of compound E, with 8 mice in each group. Other agents, drugs and experimental methods are the same as in EXAMPLE 1 and in EXAMPLE 4, respectively.

[2] = tested on: bovine viral diarrhea virus (BVDV-AV69); assay: CPE observation of effects on cytopathy caused by BVDV in MDBK cells; settings: for TI value (therapy index, TC50/IC50): MDBK cells, BVDV-AV69, TC50 from MTT, IC50 from CPE; for antiviral effect compared with AD / pharmaceutical effect against cytopathy caused by virus compared with ribavirin: BVDV in MDBK cells
Protocol: Pharmaceutical effects of drugs of the invention against cytopathy caused by inoculation of BVDV virus are investigated using MDBK (NBL-1) cells (purchased from Chinese Academy of Science's Shanghai Center for Type Culture Collection) and bovine viral diarrhea virus (BVDV-AV69) (purchased from China Institute of Veterinary Drugs Control). Ribavirin (R; Henan RunHong Pharmaceutical Co., Ltd; batch number: E0909604) is used as positive drug control. MDBK cells are prepared as a suspension (1×10^5/mL) in RPMI1640 culture medium which contains 10% in volume fetal bovine serum (Zhejiang Tianhang Biotechnology Co., Ltd; batch number: 100524), 100 μg/mL streptomycin (Shenzheng Huayao Nanfang Pharmaceutical Co., Ltd; batch number: N09081), 100 U/mL penicillin (North China Pharmaceutical Co., Ltd; batch number: E0909604), and are seeded in 96 well plates (Costar, US) at 200 μL/well, placed in an incubator (Binder, Germany) at 37° C. with 5% CO2 to culture the cell. In 24 h when cells grow into a single layer, virus solution of 100 TCID50 (TCID50=10^−2.5) is added and incubated for 1.5 h. Maintenance medium with the drug is added at 200 μL/well after 3×PBS washes.
After digestion of MDBK cells with trypsin, cells with a concentration of 1×10^5/mL are seeded into 96 well plates at 200 μL/well, placed in an incubator at 37° C. with 5% CO2 for 24 h. After growing into a single layer, cells are attacked using 100 TCID50 (TCID50=10^−2.5) virus and incubated for 1.5 h. The virus-containing maintenance medium is discarded, and cells are washed with PBS, followed by addition of drug-containing maintenance medium with different concentrations, and incubation in 5% CO2 at 37° C. Normal cell control, virus control, drug treatment and ribavirin treatment groups are set. The cytopathy developing status is recorded everyday by observing under an inverted microscope.

[3] = tested on: mice with carbon tetrachloride induced liver damage; assay: Carbon tetrachloride induced chemical liver damage model in mice; assay type: in vivo, Kunming mice; settings: for protective effect against liver damage induced by carbon tetrachloride (summary): mice, intragastric, 3 days
Protocol: Kunming mice of clean grade (male, weight 20±2 g), after adaptively fed for 3 days, are randomly divided into normal group, model group, bifendate positive control group (200 mg/kg), AD group (0.88 mmol/kg), low dosage group (0.66 mmol/kg) and high dosage group (0.88 mmol/kg) of compound A, B, C and D, with 8 mice in each group. Positive group and each test group are intragastrically given with respective suspension prepared with 0.5% CMC-Na, and normal group and model group are given with 0.5% CMC-Na. The drugs are given for 3 days, and 1 h after the last administration, all mice except those in the normal group are intraperitoneally injected with a single dose of 0.3% carbon tetrachloride in peanut oil (0.1 mL/10 g). After 16 h, the eyeball of the mice in each group is enucleated to collect blood, which is centrifuged at 3000 rpm for 15 min to separate serum. ALT and AST activities are tested respectively (Nanjing Jiancheng Bioengineering Institute). The left lobe of liver is taken to prepare 10% homogenate using physiological saline, MDA (Nanjing Jiancheng Bioengineering Institute) and PGE2 contents are determined. Experimental data are expressed as average±standard deviation (X±s), analyzed with SPSS 11.5 statistic software, with P<0.05 meaning there is a significant difference. Other agents, drugs and experimental methods are the same as in EXAMPLE 1. In experimental investigation of both models, the following grouping method is used: Kunming mice of clean grade (male, weight 20±2 g) are randomly divided into normal group, model group, bifendate group (200 mg/kg), AD group (0.88 mmol/kg), low dosage group (0.66 mmol/kg) and high dosage group (0.88 mmol/kg) of compound E, with 8 mice in each group. Other agents, drugs and experimental methods are the same as in EXAMPLE 1 and in EXAMPLE 4, respectively.

MDBK (NBL-1) cells = assay: MTT assay for cytotoxicity; assay type: cell-based, bovine
Protocol: The drug-containing medium is added and further incubated for 48 h. MTT is added (5 mg/mL) at 20 μL/well and cultured for 4 h, the supernatant is discarded and 150 μL DMSO is added, then the plate is shaken for 10 minutes and the absorbance is determined using a microplate reader using the wavelength 570 nm and a reference wavelength 450 nm. The cell survival rate is calculated after treatment of compounds: cell survival rate (%)=drug group A value/cell control group A value×100%, and the results are shown in FIG. 10. Cell proliferation inhibition rate (%)=100%−survival rate (%), half maximal (50%) toxic concentration (TC50) is calculated according to Reed-Muench method.

[4] = high dosage 0.88 mmol/kg vs AD 0.88 mmol/kg, P<0.05
[5] = high dosage 0.88 mmol/kg, P<0.01
[6] = low dosage 0.66 mmol/kg, P<0.05 (D), P<0.01 (E)
[7] = dosage groups not distinguished (0.66 and 0.88 mmol/kg), P<0.01
[8] = dosage groups not distinguished, P<0.01
[9] = high dosage 0.88 mmol/kg, P<0.05
[10] = low dosage 0.66 mmol/kg vs AD 0.88 mmol/kg, P<0.05
[11] = low dosage 0.66 mmol/kg, P<0.01

| SMILES | protective effect against liver damage induced by ConA (summary) [1] | TI value (therapy index, TC50/IC50) [2] | protective effect against liver damage induced by carbon tetrachloride (summary) [3] | ALT activity in serum vs model group [1, 5] | AST activity in serum vs model group [1, 5] | ALT activity in serum vs model group [1, 6] | AST activity in serum vs model group [1, 6] | antiviral effect compared with AD [2] | pharmaceutical effect against cytopathy caused by virus compared with ribavirin [2] | cytotoxicity to MDBK cells (MDBK (NBL-1) cells; 0-7.5 μmol/L, 48 h) | magnitude of decrease in ALT activity compared to AD group [3, 4] | magnitude of decrease in AST activity compared to AD group [3, 4] | other results |
| --- | --- | --- | --- | --- | --- | --- | --- | --- | --- | --- | --- | --- | --- |
| C=C1CC[C@@H]2[C@](C)(CO)[C@H](O)CC[C@@]2(C)[C@@H]1C/C=C1/C(=O)OC[C@H]1O [AD, andrographolide] | Obvious Protective Effect | 14.4 | Obvious Protective Effect |  |  |  |  |  |  |  |  |  | MDA content in liver homogenate vs model group ([1]; AD 0.88 mmol/kg, compounds at different dosages, P<0.05): can reduce the MDA content; liver histopathologic section (HE staining) ([1]; HE stain, 200x, FIG. 5): liver cells are slightly swelled and loosed, a portion of liver cells show spotted necrosis and degeneration, no focal necrosis involving massive liver cells is observed |
| C=C1CCC2C(C)(COC(=O)c3cccnc3)C(OC(=O)c3cccnc3)CCC2(C)C1C=CC1=CC(=Cc2ccc(Cl)cc2)OC1=O (stereo not shown) [Compound D, 15-p-chlorobenzylidene-3,19-nicotinate-14-deoxy-11,12-dehydroandrographolide] | significant protective effect | >127.6 | protective effect | notably decreased | notably decreased | notably decreased | notably decreased | better antiviral effect than AD | better than ribavirin | do not show obvious cytotoxcity | significantly better | significantly better | PGE2 content in liver homogenate relative to normal group ([1]; high dosage 0.88 mmol/kg): close to that of normal group; enzyme (ALT, AST) lowering effect compared to AD group [1, 4]: obviously increased abilities to lower the enzymes; MDA content in liver homogenate vs model group [1, 5]: significantly reduce; PGE2 content in liver homogenate vs model group [1, 5]: significantly reduce; ability against liver lipid peroxidation compared with AD group ([1]; high dosage 0.88 mmol/kg, P<0.01 (B, C), P<0.05 (D)): obviously increased abilities; PGE2 content in liver homogenate vs model group ([1]; low dosage 0.66 mmol/kg, P<0.05 (A), P<0.01 (D)): significantly reduce; MDA content in liver homogenate vs model group ([1]; low dosage (printed 0.66 mol/kg), P<0.01): significantly reduce; ALT activity in serum vs model group [3, 7]: notably suppress the increase; AST activity in serum vs model group [3, 7]: notably suppress the increase; MDA level in liver homogenate vs model group [3, 8]: effectively reduce; PGE2 level in liver homogenate vs model group [3, 8]: effectively reduce; PGE2 content compared to AD group [3, 9]: notably lower; ability to reduce lipid peroxide level in liver homogenate compared to AD group [3, 9]: stronger ability to reduce the lipid peroxide level; magnitude of decrease in ALT activity compared to AD group [3, 10]: significantly better; magnitude of decrease in AST activity compared to AD group [3, 10]: significantly better; PGE2 content compared to AD group ([3]; low dosage 0.66 mmol/kg, P<0.05): notably lower |
| C=C1CCC2C(C)(COC(=O)CCC(=O)O)C(OC(=O)CCC(=O)O)CCC2(C)C1C=CC1=CC(=Cc2ccc(Cl)cc2)OC1=O (stereo not shown) [Compound E] | significant protective effect | >250 | significant protective effect | notably decrease | notably decrease | notably decrease | notably decrease | better antiviral effect than AD | better than ribavirin | do not show obvious cytotoxcity | notably lower | notably lower | ALT activity in serum compared with AD group [1, 4]: notably lower than AD group; AST activity in serum compared with AD group [1, 4]: notably lower than AD group; ALT activity in serum compared with AD group [1, 10]: notably lower than AD group; AST activity in serum compared with AD group [1, 10]: notably lower than AD group; cytotoxicity to MDBK cells (MDBK (NBL-1) cells; 30 μmol/L): shows no cytotoxcity; ALT activity in serum vs model group [3, 5]: notably decrease; AST activity in serum vs model group [3, 5]: notably decrease; ALT activity in serum vs model group [3, 11]: notably decrease; AST activity in serum vs model group [3, 11]: notably decrease |
| NC(=O)c1ncn([C@@H]2O[C@H](CO)[C@@H](O)[C@H]2O)n1 [Ribavirin(R), Ribavirin, reference compound] |  | 4 |  |  |  |  |  |  |  |  |  |  |  |
